# Reference: patent US7595401B2, “Therapeutic compounds and their use in cancer” (Myriad Pharmaceuticals, Inc., priority 2006, dated 2009)
# Tested on: purified human Hsp90
# Experiment: Binding Assay: fluorescence polarization with BODIPY-labeled geldanamycin
# Conditions: 5 μM compound, BODIPY-GM 10 nM, Hsp90 30 nM
# Outline: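 Compounds in 2% DMSO final compete with 10 nM BODIPY-GM for 30 nM purified human Hsp90, incubated overnight at room temperature in pH 7.3 HEPES buffer containing Na2MoO4 and DTT. Polarization (mP, ex/em 485/530) normalized to DMSO gives percent inhibition; autofluorescence-confounded data excluded.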
row,Compound,% Inhibition at 5 μM Compound Concentration [%]
1,"Nc1ncn(CCc2ccsc2)c2nc(Sc3cc4c(cc3Br)OCO4)nc1-2 [Example 202, 8-(6-bromo-benzo[1,3]dioxol-5-ylsulfanyl)-3-(2-thiophen-3-yl-ethyl)-3H-purin-6-ylamine]",9
2,"Nc1ncn(CCc2cccs2)c2nc(Sc3cc4c(cc3Br)OCO4)nc1-2 [Example 204, 8-(6-bromo-benzo[1,3]dioxol-5-ylsulfanyl)-3-(2-thiophen-2-yl-ethyl)-3H-purin-6-ylamine]",11
3,"COc1ccc(OC)c(Sc2nc3c(N)ncnc3n2CCc2ccccc2[N+](=O)[O-])c1 [Example 205, 8-(2,5-Dimethoxy-phenylsulfanyl)-9-[2-(2-nitro-phenyl)-ethyl]-9H-purin-6-ylamine]",80
4,"COc1ccc(OC)c(Sc2nc3c(N)ncn(CCc4ccccc4[N+](=O)[O-])c-3n2)c1 [Example 206, 8-(2,5-dimethoxy-phenylsulfanyl)-3-[2-(2-nitro-phenyl)-ethyl]-3H-purin-6-ylamine]",0
5,"Nc1ncn(CCc2ccccc2[N+](=O)[O-])c2nc(Sc3cc4c(cc3Br)OCO4)nc1-2 [Example 208, 8-(6-bromo-benzo[1,3]dioxol-5-ylsulfanyl)-3-[2-(2-nitro-phenyl)-ethyl]-3H-purin-6-ylamine]",46
6,"Nc1ncn(CCc2ccccc2)c2nc(Cc3cc4c(cc3Br)OCO4)nc1-2 [Example 210, 8-(6-Bromo-benzo[1,3]dioxol-5-ylmethyl)-3-phenethyl-3H-purin-6-ylamine]",8
7,"CC(C)(C)OC(=O)Nc1ccc(CCn2cnc(N)c3nc(Sc4cc5c(cc4Br)OCO5)nc2-3)cc1 [Example 212, (4-{2-[6-amino-8-(6-bromo-benzo[1,3]dioxol-5-ylsulfanyl)-purin-3-yl]-ethyl}-phenyl)carbamic acid tert-butyl ester]",4
8,"COc1ccc(OC)c(Sc2nc3c(N)ncn(CCc4ccc(NC(=O)OC(C)(C)C)cc4)c-3n2)c1 [Example 215, (4-{2-[6-amino-8-(2,5-dimethoxy-phenylsulfanyl)-purin-3-yl]-ethyl}-phenyl)-carbamic acid tert-butyl ester]",0
9,"COc1ccc(OC)c(Sc2nc3c(N)ncnc3n2CCc2ccc(N)cc2)c1 [Example 216, 9-[2-(4-Amino-phenyl)-ethyl]-8-(2,5-dimethoxy-phenylsulfanyl)-9H-purin-6-ylamine]",78
10,"Nc1ncn(CC(c2ccccc2)C2CCCCC2)c2nc(Sc3cc4c(cc3Br)OCO4)nc1-2 (stereo not shown) [Example 227, 8-[(6-Bromo-1,3-benzodioxol-5-yl)thio]-3-(2-cyclohexyl-2-phenylethyl)-3H-purin-6-amine]",0
11,"Nc1ncn(CCc2ccccc2)c2nc(Sc3cc(OC(F)(F)F)ccc3Cl)nc1-2 [Example 229, 8-{[2-Chloro-5-(trifluoromethoxy)phenyl]thio}-3-(2-phenylethyl)-3H-purin-6-amine]",24
12,"Nc1ncn(CCc2ccccc2Cl)c2nc(Sc3cc4c(cc3Br)OCCO4)nc1-2 [Example 234, 8-[(7-Bromo-2,3-dihydro-1,4-benzodioxin-6-yl)thio]-3-[2-(2-chlorophenyl)ethyl]-3H-purin-6-amine]",0
13,"COc1ccc(OC)c(Sc2nc3c(N)ncn(C4Cc5ccccc5C4O)c-3n2)c1 (stereo not shown) [Example 236, 2-{6-Amino-8-[(2,5-dimethoxyphenyl)thio]-3H-purin-3-yl}indan-1-ol]",0
14,"COc1ccc(Sc2nc3c(N)ncn(CCc4ccccc4)c-3n2)cc1Cl [Example 241, 8-[(3-Chloro-4-methoxyphenyl)thio]-3-(2-phenylethyl)-3H-purin-6-amine]",0
15,"COc1ccc(OC)c(Sc2nc3c(N)ncnc3n2CCC2(F)C(F)(F)C(F)(F)C(F)(F)C(F)(F)C2(F)F)c1 [Example 245, 8-[(2,5-Dimethoxyphenyl)thio]-9-[2-(undecafluorocyclohexyl)ethyl]-9H-purin-6-amine]",1

# Same assay, conditions: BODIPY-GM 10 nM, Hsp90 30 nM
row,Compound,IC50 [nM]
1,"Nc1ncnc2c1nc(Sc1cc3c(cc1Br)OCO3)n2CCc1cccs1 [Example 203, 8-(6-Bromo-benzo[1,3]dioxol-5-ylsulfanyl)-9-(2-thiophen-2-yl-ethyl)-9H-purin-6-ylamine]",90
2,"COc1ccc(OC)c(Sc2nc3c(N)ncnc3n2CCc2ccccc2[N+](=O)[O-])c1 [Example 205, 8-(2,5-Dimethoxy-phenylsulfanyl)-9-[2-(2-nitro-phenyl)-ethyl]-9H-purin-6-ylamine]",240
3,"Nc1ncnc2c1nc(Sc1cc3c(cc1Br)OCO3)n2CCc1ccccc1[N+](=O)[O-] [Example 207, 8-(6-Bromo-benzo[1,3]dioxol-5-ylsulfanyl)-9-[2-(2-nitro-phenyl)-ethyl]-9H-purin-6-ylamine]",38
4,"Nc1ncn(CCc2ccccc2[N+](=O)[O-])c2nc(Sc3cc4c(cc3Br)OCO4)nc1-2 [Example 208, 8-(6-bromo-benzo[1,3]dioxol-5-ylsulfanyl)-3-[2-(2-nitro-phenyl)-ethyl]-3H-purin-6-ylamine]",> 25000
5,"Nc1ncnc2c1nc(Cc1cc3c(cc1Br)OCO3)n2CCc1ccccc1 [Example 209, 8-(6-Bromo-benzo[1,3]dioxol-5-ylmethyl)-9-phenethyl-9H-purin-6-ylamine]",450
6,"CC(C)(C)OC(=O)Nc1ccc(CCn2c(Sc3cc4c(cc3Br)OCO4)nc3c(N)ncnc32)cc1 [Example 211, (4-{2-[6-Amino-8-(6-bromo-benzo[1,3]dioxol-5-ylsulfanyl)-purin-9-yl]-ethyl}-phenyl)carbamic acid tert-butyl ester]",> 25000
7,"COc1ccc(OC)c(Sc2nc3c(N)ncnc3n2CCc2ccc(NC(=O)OC(C)(C)C)cc2)c1 [Example 214, (4-{2-[6-Amino-8-(2,5-dimethoxy-phenylsulfanyl)-purin-9-yl]-ethyl}-phenyl)-carbamic acid tert-butyl ester]",950
8,"COc1ccc(OC)c(Sc2nc3c(N)ncnc3n2CCc2ccc(N)cc2)c1 [Example 216, 9-[2-(4-Amino-phenyl)-ethyl]-8-(2,5-dimethoxy-phenylsulfanyl)-9H-purin-6-ylamine]",> 8000
9,"COc1ccc(OC)c(Sc2nc3c(N)ncnc3n2CCc2cccc(OC(F)(F)F)c2)c1 [Example 217, 8-(2,5-Dimethoxy-phenylsulfanyl)-9-[2-(3-trifluoromethoxy-phenyl)-ethyl]-9H-purin-6-ylamine]",> 10000
10,"COc1ccc(OC)c(Sc2nc3c(N)ncnc3n2CCc2c(F)c(F)c(F)c(F)c2F)c1 [Example 218, 8-(2,5-Dimethoxy-phenylsulfanyl)-9-(2-pentafluorophenyl-ethyl)-9H-purin-6-ylamine]",> 3000
11,"COc1ccc(OC)c(Sc2nc3c(N)ncnc3n2CCc2cc(C(F)(F)F)cc(C(F)(F)F)c2)c1 [Example 219, 9-[2-(3,5-Bistrifluoromethyl-phenyl)-ethyl]-8-(2,5-dimethoxy-phenylsulfanyl)-9H-purin-6-ylamine]",> 8000
12,"Nc1ncnc2c1nc(Sc1cc3c(cc1Br)OCO3)n2CC1(c2ccc(Cl)cc2)CC1 [Example 221, 8-(6-Bromo-benzo[1,3]dioxol-5-ylsulfanyl)-9-[1-(4-chloro-phenyl)-cyclopropylmethyl]-9H-purin-6-ylamine]",> 9000
13,"COc1ccc(OC)c(Sc2nc3c(N)ncnc3n2CCc2cccc([N+](=O)[O-])c2)c1 [Example 223, 8-(2,5-Dimethoxy-phenylsulfanyl)-9-[2-(3-nitro-phenyl)-ethyl]-9H-purin-6-ylamine]",500
14,"O=c1[nH]cnc2c1nc(Sc1ccc3c(c1)OCO3)n2CCc1ccccc1 [Example 224, 8-(Benzo[1,3]dioxol-5-ylsulfanyl)-9-phenethyl-1,9-dihydro-purin-6-one]",> 5000
15,"Nc1ncnc2c1nc(Sc1cc3c(cc1Br)OCO3)n2CC(c1ccccc1)C1CCCCC1 (stereo not shown) [Example 226, 8-[(6-Bromo-1,3-benzodioxol-5-yl)thio]-9-(2-cyclohexyl-2-phenylethyl)-9H-purin-6-amine]",> 25000
16,"Nc1ncnc2c1nc(Sc1cc(OC(F)(F)F)ccc1Cl)n2CCc1ccccc1 [Example 228, 8-{[2-Chloro-5-(trifluoromethoxy)phenyl]thio}-9-(2-phenylethyl)-9H-purin-6-amine]",> 8000
17,"COc1ccc(OC)c(Sc2nc3c(N)nc(F)nc3n2CCc2ccccc2)c1 [Example 230, 8-[(2,5-Dimethoxyphenyl)thio]-2-fluoro-9-(2-phenylethyl)-9H-purin-6-amine]",210
18,"COc1ccc(OC)c(Sc2nc3c(N)ncnc3n2CCc2ccccc2O)c1 [Example 231, 2-(2-{6-Amino-8-[(2,5-dimethoxyphenyl)thio]-9H-purin-9-yl}ethyl)phenol]",> 25000
19,"Nc1ncnc2c1nc(Sc1cc3c(cc1Br)OCCO3)n2CCc1ccccc1Cl [Example 233, 8-[(7-Bromo-2,3-dihydro-1,4-benzodioxin-6-yl)thio]-9-[2-(2-chlorophenyl)ethyl]-9H-purin-6-amine]",500
20,"COc1ccc(OC)c(Sc2nc3c(N)ncnc3n2C2Cc3ccccc3C2O)c1 (stereo not shown) [Example 235, 2-{6-Amino-8-[(2,5-dimethoxyphenyl)thio]-9H-purin-9-yl}indan-1-ol]",> 8000
21,"COc1cc(Sc2nc3c(N)nc(F)nc3n2CCc2ccccc2Cl)cc(OC)c1OC [Example 237, 9-[2-(2-Chlorophenyl)ethyl]-2-fluoro-8-[(3,4,5-trimethoxyphenyl)thio]-9H-purin-6-amine]",> 25000
22,"COc1cc(Sc2nc3c(N)nc(F)nc3n2CCc2c(Cl)cccc2Cl)c(Cl)c(OC)c1OC [Example 239, 8-[(2-Chloro-3,4,5-trimethoxyphenyl)thio]-9-[2-(2,6-dichlorophenyl)ethyl]-2-fluoro-9H-purin-6-amine]",> 25000
23,"Nc1ncnc2c1nc(Sc1cc3c(cc1Br)OCO3)n2CCC1(F)C(F)(F)C(F)(F)C(F)(F)C(F)(F)C1(F)F [Example 243, 8-[(6-Bromo-1,3-benzodioxol-5-yl)thio]-9-[2-(undecafluorocyclohexyl)ethyl]-9H-purin-6-amine]",> 1000
24,"COc1ccc(CCn2c(Sc3cc(OC)ccc3OC)nc3c(N)ncnc32)cc1 [Example 247, 8-[(2,5-Dimethoxyphenyl)thio]-9-[2-(4-methoxyphenyl)ethyl]-9H-purin-6-amine]",3000
25,"COc1ccc(OC)c(Sc2nc3c(N)ncnc3n2CCc2ccc(Cl)cc2)c1 [Example 248, 9-[2-(4-Chlorophenyl)ethyl]-8-[(2,5-dimethoxyphenyl)thio]-9H-purin-6-amine]",> 5000
